The values below come from patent US9884854B2, “N-[(pyrimidinylamino)propanyl]-and N[(pyrazinylamino)proppanyl]arylcarboxamides” (Boehringer Ingelheim International GmbH, priority 2016, dated 2018).

The assay addresses T1, human orexin 2 receptor (Homo sapiens, UniProt O43614).
T1 construct: stably expressing the full-length human orexin 2 receptor and the aequorin photoprotein; expressed in transfected cells; host or cells: CHO-K1 (CHO-K1/hOx2), co-expressing aequorin
T1 sequence (O43614 1-444): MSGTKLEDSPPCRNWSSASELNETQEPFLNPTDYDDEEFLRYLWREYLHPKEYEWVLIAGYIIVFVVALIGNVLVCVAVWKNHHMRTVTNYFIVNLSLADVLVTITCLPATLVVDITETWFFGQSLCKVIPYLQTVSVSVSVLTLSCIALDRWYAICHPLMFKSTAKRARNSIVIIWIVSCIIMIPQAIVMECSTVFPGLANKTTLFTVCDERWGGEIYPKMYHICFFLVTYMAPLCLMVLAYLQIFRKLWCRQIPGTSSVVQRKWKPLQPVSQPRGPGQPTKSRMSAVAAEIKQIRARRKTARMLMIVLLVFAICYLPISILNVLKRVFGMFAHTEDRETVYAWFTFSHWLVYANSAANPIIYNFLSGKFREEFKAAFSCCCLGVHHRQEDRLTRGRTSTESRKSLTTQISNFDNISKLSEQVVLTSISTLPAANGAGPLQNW
Briefly: Assay B: OX2R IP1 (in vitro OX2R potency). It is filed as cell-based. The note with it: 0.5 nM Orexin A concentration. An excerpt: Activation of the orexin receptors expressed in cell lines results in an increase in intracellular IP3 concentration. IP1, a downstream metabolite of IP3, accumulates in cells following receptor activation and is stable in the presence of LiCl. Using Homogeneous Time-Resolved Fluorescence technology with Lumi4-Tb cryptate (commercially available from Cisbio Bioassay.) and a suitable fluorescence plate reader. […] Chem. Genomics 2009, 3, 22-32. This technique is used to characterize pharmacological modification of the orexin receptors.
B. In Vitro Testing of OX2R Potency: OX2R IP1
IP1 measurements are performed in CHO-K1 cells stably expressing the full-length human orexin 2 receptor and the aequorin photoprotein. Cells are cultivated in Ham's nutrient mixture F12 medium with 10% fetal calf serum, in a 37° C., 95% humidity and 5% CO2 incubator. The CHO-K1/hOx2 cell mass is expanded to larger cell numbers. The cells are obtained as frozen cells in cryo-vials and stored until use at −150° C. The viability of the cells after thawing is >90%. In preparation for the assay, 24 hours before the assay, the cells are thawed at 37° C. and immediately diluted with cell culture medium. After centrifugation, the cell pellet is resuspended in medium and then distributed into the assay plates with a density of 5000 cells/25 μL per well. The plates are incubated for one hour at room temperature to reduce edge effects before they are incubated for 24 hours at 37° C./5% CO2. Compounds are prepared by a 8-point serial dilution in DMSO and a final dilution step into assay buffer (HBSS with 20 mM HEPES, 0.1% BSA and 50 mM LiCl, pH 7.4) to ensure a final DMSO concentration of 1% in the assay. On the day of the assay, cells in the plate are washed twice with 60 μL assay buffer (20 μL buffer remained in the wells after washing), followed by adding 5 μL per well of compounds diluted in assay buffer. After 15 minutes of incubation at room temperature 5 μL per well of Orexin A peptide (final concentration: 0.5 nM) dissolved in assay buffer is added to the assay plate. The assay plate is incubated for 60 minutes at 37° C. Then 5 μl per well of Anti-IP1-Cryptate Tb solution and 5 μl per well of IP1-d2 dilution are added to all well of the plate and the plate is incubated for a further 60 minutes light protected at room temperature. The emission at 615 nm and 665 nm (Excitation wavelength: 320 nm) are measured using an EnVision reader (PerkinElmer). The ratio between the emission at 665 nm and 615 is calculated by the reader.
8-point four parametric non-linear curve fitting and determination of IC50 values and Hill slopes is performed using a regular analysis software e.g. AssayExplorer (Accelrys). In order to establish an agonist concentration independent parameter, Kb values are calculated using the following equation: IC50/((2+(A/EC50)n)^1/n−1) (with A=concentration agonist, EC50=EC50 agonist, n=Hill slope agonist) (see P. Leff, I. G. Dougall, Trends Pharmacol. Sci. 1993, 14(4), 110-112).
Kb values from Assay A (OX1R) and Assay B (OX2R) can then provide a selectivity ratio which is independent of the agonist (Orexin A) concentration.
In the case of `CCN(C(=O)c1ccccc1-n1nccn1)[C@@H](C)CNc1ncc(C(F)(F)F)cn1` [Example 1], the Kb stood at 19.4 nM. In turn, `CCN(C(=O)c1nc(C)ccc1-n1nccn1)[C@@H](C)CNc1ncc(C(F)(F)F)cn1` [Example 9] came in with a Kb of 32.9 nM. The value for `CCN(C(=O)c1cnc(C)nc1-c1ccccc1)[C@@H](C)CNc1ncc(C(F)(F)F)cn1` [Example 17] was 54 nM; that for `CCN(C(=O)c1cccc(F)c1-n1nccn1)[C@@H](C)CNc1ncc(C(F)(F)F)cn1` [Example 18] was 18 nM.
